Values after ≈ are worked out from the molar mass of the structure shown. Read-outs that look alike come from different tables or passages of the source.
Legend:
A. baumannii = test: Antibacterial activity against reference strains: A. baumannii; assay type: cell-based; conditions: strain AG225
E. coli = test: Antibacterial activity against reference strains: E. coli; conditions: for MIC: Escherichia coli
K. pneumoniae = test: Antibacterial activity against reference strains: K. pneumoniae; assay type: cell-based; conditions: strain AG215
E. cloacae = test: Antibacterial activity against reference strains: E. cloacae; assay type: cell-based; conditions: for MIC: Enterobacter cloacae, read-out: Antibacterial activity (MIC) E. cloacae AG290
[1] = test system: A1555G mutant mitochondrial hybrid ribosome; assay type: biochemical, human; conditions: for Selectivity A1555G: A1555G over wt bacterial ribosome; for IC50 A1555G: in vitro translation inhibition, A1555G mutant mitochondrial hybrid ribosome
[2] = test system: Mit13 hybrid ribosome (decoding A site of the human mitochondrial ribosome); assay type: biochemical; conditions: for Selectivity Mit 13: Mit13 over wt bacterial ribosome; for IC50 Mit13: in vitro translation inhibition, Mit13 hybrid ribosome
[3] = test system: wild-type bacterial ribosome; test: Cell-free translation assay, wild-type bacterial ribosome; assay type: biochemical; conditions: in vitro translation inhibition
[4] = test system: Cyt14 hybrid ribosome (decoding A site of the human cytoplasmic ribosome); assay type: biochemical; conditions: for Selectivity Cyt14: Cyt14 over wt bacterial ribosome; for IC50 Cyt 14: in vitro translation inhibition, Cyt14 hybrid ribosome
MRSA = test: Antibacterial activity against reference strains: MRSA; assay type: cell-based; conditions: for MIC: Staphylococcus aureus, MRSA
[5] = test system: E. coli clinical isolates carrying two or more resistance determinants; test: Activity against E. coli clinical isolates with multiple resistance determinants; assay type: cell-based; conditions: Escherichia coli
[6] = test system: E. cloacae clinical isolates carrying two or more resistance determinants; assay type: cell-based; conditions: Enterobacter cloacae
[7] = test system: E. coli carrying specific resistance determinants; test: Activity against wild-type and engineered E. coli carrying specific AMEs or RMTs; assay type: cell-based; conditions: Escherichia coli
[8] = read-out: Activity (MIC) E. coli isolate 201430298
[9] = read-out: Activity (MIC) E. coli isolate 201441114
[10] = read-out: Activity (MIC) E. coli isolate 2014251408
[11] = read-out: Activity (MIC) E. coli isolate 2014405344
[12] = read-out: Antibacterial activity (MIC) E. coli AG001
[13] = read-out: Antibacterial activity (MIC) E. coli AG003
[14] = read-out: Activity (MIC) E. cloacae isolate 201333207
[15] = read-out: Activity (MIC) E. cloacae isolate 201385168
[16] = read-out: Activity (MIC) E. cloacae isolate 201430601
[17] = read-out: Activity (MIC) E. cloacae isolate 201435487
[18] = read-out: Antibacterial activity (MIC) MRSA AG038
[19] = read-out: Antibacterial activity (MIC) MRSA AG042
[20] = read-out: Activity (MIC) E. coli AG006
[21] = read-out: Activity (MIC) E. coli AG007
[22] = read-out: Activity (MIC) E. coli AG008
[23] = read-out: Activity (MIC) E. coli AG009
[24] = read-out: Activity (MIC) E. coli AG036
[25] = read-out: Activity (MIC) E. coli AG103
[26] = read-out: Activity (MIC) E. coli AG105
[27] = read-out: Activity (MIC) E. coli AG166

## NC[C@@H]1O[C@H](O[C@H]2[C@@H](O)[C@H](O[C@@H]3[C@@H](O)[C@H](N)C[C@H](N)[C@H]3O[C@H]3O[C@H](CO)C[C@H](O)[C@H]3N)O[C@@H]2CO)[C@H](N)[C@@H](O)[C@@H]1O [Compound 2, 4’-deoxy paromomycin]
A. baumannii
  Antibacterial activity (MIC) A. baumannii AG225: 8 µg/mL
E. coli; strain AG003 carries the AAC(3) gene
  Antibacterial activity (MIC) E. coli AG003: 32 µg/mL
K. pneumoniae
  Antibacterial activity (MIC) K. pneumoniae AG215: 4 µg/mL
E. cloacae; strain AG290
  Antibacterial activity (MIC) E. cloacae AG290: 4 to 8 µg/mL
[1]
  Selectivity A1555G: 480
  IC50 A1555G: 24 µg/mL (≈ 40 µM)
[2]
  Selectivity Mit 13: 1480
  IC50 Mit13: 74 µg/mL (≈ 123 µM)
[3]
  IC50 wt: 0.05 µg/mL (≈ 0.0834 µM)
[4]
  Selectivity Cyt14: 560
  IC50 Cyt 14: 28 µg/mL (≈ 46.7 µM)
MRSA; strain AG038
  Antibacterial activity (MIC) MRSA AG038: 16 µg/mL
MRSA; strain AG042 carries the AAC(6)’, ANT(4’,4’’) and APH(3’) genes
  Antibacterial activity (MIC) MRSA AG042: 8 to 16 µg/mL

## CNC(C)C1CCC(N)C(OC2C(N)CC(N)C(OC3OCC(C)(O)C(NC)C3O)C2O)O1 (stereo not shown) [Gentamicin]
[5]; [8]
  MIC: 128 µg/mL (≈ 268 µM)
[5]; [9]
  MIC: 16 µg/mL (≈ 33.5 µM)
[5]; [10]
  MIC: 256 µg/mL (≈ 536 µM)
[5]; [11]
  MIC: > 256 µg/mL
E. coli; [12]
  MIC: 1 to 2 µg/mL (≈ 2.09 to 4.19 µM)
E. coli; [13]
  MIC: 32 to 64 µg/mL (≈ 67 to 134 µM)
E. cloacae
  MIC: 0.25 µg/mL (≈ 0.523 µM)
[1]
  IC50 A1555G: 0.5 µg/mL (≈ 1.05 µM)
[2]
  IC50 Mit13: 9 µg/mL (≈ 18.8 µM)
[6]; [14]
  MIC: 64 µg/mL (≈ 134 µM)
[6]; [15]
  MIC: > 256 µg/mL
[6]; [16]
  MIC: 16 µg/mL (≈ 33.5 µM)
[6]; [17]
  MIC: 64 µg/mL (≈ 134 µM)
[3]
  IC50 wt: 0.02 µg/mL (≈ 0.0419 µM)
[4]
  IC50 Cyt 14: 33 µg/mL (≈ 69.1 µM)
MRSA; [18]
  MIC: 0.25 µg/mL (≈ 0.523 µM)
MRSA; [19]
  MIC: 64 µg/mL (≈ 134 µM)
[7]; [20]
  MIC: 0.5 µg/mL (≈ 1.05 µM)
[7]; [21]
  MIC: 32 µg/mL (≈ 67 µM)
[7]; [22]
  MIC: 8 to 16 µg/mL (≈ 16.8 to 33.5 µM)
[7]; [23]
  MIC: 1 to 2 µg/mL (≈ 2.09 to 4.19 µM)
[7]; [24]
  MIC: 0.5 µg/mL (≈ 1.05 µM)
[7]; [25]
  MIC: > 128 µg/mL
[7]; [26]
  MIC: 32 µg/mL (≈ 67 µM)
[7]; [27]
  MIC: 0.5 µg/mL (≈ 1.05 µM)

## NCC[C@H](O)C(=O)N[C@@H]1C[C@H](N)[C@@H](O[C@H]2O[C@H](CN)[C@@H](O)[C@H](O)[C@H]2O)[C@H](O)[C@H]1O[C@H]1O[C@H](CO)[C@@H](O)[C@H](N)[C@H]1O [Amikacin]
[5]; [8]
  MIC: 8 µg/mL (≈ 13.7 µM)
[5]; [9]
  MIC: 64 µg/mL (≈ 109 µM)
[5]; [10]
  MIC: 64 µg/mL (≈ 109 µM)
[5]; [11]
  MIC: > 256 µg/mL
E. coli; [12]
  MIC: 2 µg/mL (≈ 3.42 µM)
E. coli; [13]
  MIC: 2 µg/mL (≈ 3.42 µM)
E. cloacae
  MIC: 1 µg/mL (≈ 1.71 µM)
[1]
  Selectivity A1555G: 21
  IC50 A1555G: 0.42 µg/mL (≈ 0.717 µM)
[2]
  Selectivity Mit 13: 600
  IC50 Mit13: 12 µg/mL (≈ 20.5 µM)
[6]; [14]
  MIC: 16 µg/mL (≈ 27.3 µM)
[6]; [15]
  MIC: > 256 µg/mL
[6]; [16]
  MIC: 8 µg/mL (≈ 13.7 µM)
[6]; [17]
  MIC: 4 µg/mL (≈ 6.83 µM)
[3]
  IC50 wt: 0.02 µg/mL (≈ 0.0342 µM)
[4]
  Selectivity Cyt14: 4500
  IC50 Cyt 14: 90 µg/mL (≈ 154 µM)
MRSA; [18]
  MIC: 4 µg/mL (≈ 6.83 µM)
MRSA; [19]
  MIC: 16 to 32 µg/mL (≈ 27.3 to 54.6 µM)
[7]; [20]
  MIC: 1 to 2 µg/mL (≈ 1.71 to 3.42 µM)
[7]; [21]
  MIC: 2 µg/mL (≈ 3.42 µM)
[7]; [22]
  MIC: 1 to 2 µg/mL (≈ 1.71 to 3.42 µM)
[7]; [23]
  MIC: 32 µg/mL (≈ 54.6 µM)
[7]; [24]
  MIC: 4 to 8 µg/mL (≈ 6.83 to 13.7 µM)
[7]; [25]
  MIC: > 128 µg/mL
[7]; [26]
  MIC: 2 µg/mL (≈ 3.42 µM)
[7]; [27]
  MIC: 2 µg/mL (≈ 3.42 µM)

## NC[C@H]1O[C@H](O[C@H]2[C@H](O)[C@@H](O[C@H]3O[C@H](CO)[C@@H](O)[C@H](N)[C@H]3O)[C@H](N)C[C@@H]2N)[C@H](N)C[C@@H]1O [Tobramycin]
[5]; [8]
  MIC: 256 µg/mL (≈ 548 µM)
[5]; [9]
  MIC: 32 µg/mL (≈ 68.4 µM)
[5]; [10]
  MIC: 128 µg/mL (≈ 274 µM)
[5]; [11]
  MIC: > 256 µg/mL
E. coli; [12]
  MIC: 1 to 2 µg/mL (≈ 2.14 to 4.28 µM)
E. coli; [13]
  MIC: 4 µg/mL (≈ 8.56 µM)
E. cloacae
  MIC: 0.5 to 1 µg/mL (≈ 1.07 to 2.14 µM)
[1]
  Selectivity A1555G: 25
  IC50 A1555G: 0.5 µg/mL (≈ 1.07 µM)
[2]
  Selectivity Mit 13: 750
  IC50 Mit13: 15 µg/mL (≈ 32.1 µM)
[6]; [14]
  MIC: 32 µg/mL (≈ 68.4 µM)
[6]; [15]
  MIC: > 256 µg/mL
[6]; [16]
  MIC: 32 µg/mL (≈ 68.4 µM)
[6]; [17]
  MIC: 16 µg/mL (≈ 34.2 µM)
[3]
  IC50 wt: 0.02 µg/mL (≈ 0.0428 µM)
[4]
  Selectivity Cyt14: 1350
  IC50 Cyt 14: 27 µg/mL (≈ 57.8 µM)
MRSA; [18]
  MIC: 0.5 to 1 µg/mL (≈ 1.07 to 2.14 µM)
MRSA; [19]
  MIC: ≥ 256 µg/mL
[7]; [20]
  MIC: 0.5 µg/mL (≈ 1.07 µM)
[7]; [21]
  MIC: 4 µg/mL (≈ 8.56 µM)
[7]; [22]
  MIC: 8 µg/mL (≈ 17.1 µM)
[7]; [23]
  MIC: 64 to 128 µg/mL (≈ 137 to 274 µM)
[7]; [24]
  MIC: 16 to 32 µg/mL (≈ 34.2 to 68.4 µM)
[7]; [25]
  MIC: > 128 µg/mL
[7]; [26]
  MIC: 1 µg/mL (≈ 2.14 µM)
[7]; [27]
  MIC: 0.5 to 1 µg/mL (≈ 1.07 to 2.14 µM)
